According to US6645918B1, “N-([1,2,4]triazoloazinyl)thiophenesulfonamide compounds and their use as herbicides” (Dow AgroSciences LLC, priority 2000, dated 2003):

Key:
Assay type in all cases: in vivo
[1] = tested on: pigweed (Amaranthus retroflexus); assay: Preemergence herbicidal activity, pigweed; details: soil spray, visual after 3 weeks, 0 no injury, 100 complete kill or no germination
Description: (§1) The soil matrix was contained in plastic pots with a surface area of 161 square centimeters. When required to ensure good germination and healthy plants, a fungicide treatment and/or other chemical or physical treatment was applied. A weighed amount, determined by the highest rate to be tested, of each test compound was placed in a 20 mL glass vial and was dissolved in 8 mL of a 97:3 v/v (volume/volume) mixture of acetone and dimethyl sulfoxide to obtain concentrated stock solutions. […] The stock solutions obtained were diluted with a 99.9:0.1 mixture of water and Tween® 155 surfactant (ethoxylated sorbitan fatty acid ester) to obtain application solutions of known concentration. The solutions containing the highest concentration to be tested were prepared by diluting 4 mL aliquots of the stock solution with 8.5 mL of the mixture and lower concentrations were prepared by dilution of appropriate smaller portions of the stock solution. A 2.5 mL aliquot of each solution of known concentration was sprayed evenly onto the soil of each seeded pot using a Cornwall 5.0 mL glass syringe fitted with a TeeJet TN-3 hollow cone nozzle to obtain thorough coverage of the soil in each pot. Control pots were sprayed in the same manner with the aqueous mixture. A highest application rate of 4.48 kg/ha is achieved when 50 mg of test compound is employed. The treated pots and control pots were placed in a greenhouse with an approximately 15 hr photoperiod which was maintained at about 23-29° C. during the day and 22-28° C. during the night. Nutrients and water were added on a regular basis and supplemental lighting was provided with overhead metal halide 1000 Watt lamps as necessary. The water was added by top-irrigation. After 3 weeks the condition of the test plants that germinated and grew as compared with that of the untreated plants that germinated and grew was determined visually and scored on a scale of 0 to 100 percent where 0 corresponds to no injury and 100 corresponds to complete kill or no germination.

[2] = tested on: blackgrass (Alopecurus myosuroides); assay: Preemergence herbicidal activity, blackgrass; details: soil spray, visual after 3 weeks, 0 no injury, 100 complete kill or no germination
Description: as §1

[3] = tested on: Rox orange sorghum (Sorghum bicolor); assay: Postemergence herbicidal activity, Rox orange sorghum; details: foliar spray, visual after 2 weeks, 0 no injury, 100 complete kill
Description: (§2) Seeds of the desired test plant species were planted in Grace-Sierra MetroMix® 306 planting mixture, which typically has a pH of 6.0 to 6.8 and an organic matter content of about 30 percent, in plastic pots with a surface area of 64 square centimeters. When required to ensure good germination and healthy plants, a fungicide treatment and/or other chemical or physical treatment was applied. The plants were grown for 7-21 days in a greenhouse with an approximately 15 hr photoperiod which was maintained at about 23-29° C. during the day and 22-28° C. during the night. Nutrients and water were added on a regular basis and supplemental lighting was provided with overhead metal halide 1000 Watt lamps as necessary. The plants were employed for testing when they reached the first or second true leaf stage. A weighed amount of each test compound, determined by the highest rate to be tested, was placed in a 20 mL glass vial and was dissolved in 4 mL of a 97:3 v/v (volume/volume) mixture of acetone and dimethyl sulfoxide to obtain concentrated stock solutions. […] The concentrated stock solutions obtained were diluted with an aqueous mixture containing acetone, water, iso-propyl alcohol, dimethyl sulfoxide, Atplus 411F crop oil concentrate, and Triton X-155 surfactant (methylenebisdiamyl phenoxy polyethoxy ethanol) in a 48.5:39:10:1.5:1.0:0.02 v/v ratio to obtain spray solutions of known concentration. The solutions containing the highest concentration to be tested were prepared by diluting 2 mL aliquots of the stock solution with 13 mL of the mixture and lower concentrations were prepared by dilution of appropriate smaller portions of the stock solution. Approximately 1.5 mL aliquots of each solution of known concentration were sprayed evenly onto each of the test plant pots using a DeVilbiss atomizer driven by compressed air pressure of 2 to 4 psi (140 to 280 kilopascals) to obtain thorough coverage of each plant. Control plants were sprayed in the same manner with the aqueous mixture. In this test an application rate of 1 ppm results in the application of approximately 1 g/ha. The treated plants and control plants were placed in a greenhouse as described above and watered by sub-irrigation to prevent wash-off of the test compounds. After 2 weeks the condition of the test plants as compared with that of the untreated plants was determined visually and scored on a scale of 0 to 100 percent where 0 corresponds to no injury and 100 corresponds to complete kill.

[4] = tested on: barnyardgrass (Echinochloa crus-galli); assay: Preemergence herbicidal activity, barnyardgrass; details: soil spray, visual after 3 weeks, 0 no injury, 100 complete kill or no germination
Description: as §1

[5] = tested on: wild buckwheat (Polygonum convolvulus); assay: Postemergence herbicidal activity, wild buckwheat; details: foliar spray, visual after 2 weeks, 0 no injury, 100 complete kill
Description: as §2

[6] = tested on: chickweed (Stellaria media); assay: Postemergence herbicidal activity, chickweed; details: foliar spray, visual after 2 weeks, 0 no injury, 100 complete kill
Description: as §2

[7] = tested on: morningglory (Ipomoea hederacea); assay: Postemergence herbicidal activity, morningglory; details: foliar spray, visual after 2 weeks, 0 no injury, 100 complete kill
Description: as §2

[8] = tested on: wild poinsettia (Euphorbia heterophylla); assay: Preemergence herbicidal activity, wild poinsettia; details: soil spray, visual after 3 weeks, 0 no injury, 100 complete kill or no germination
Description: as §1

[9] = tested on: velvetleaf (Abutilion theophrasti); assay: Postemergence herbicidal activity, velvetleaf; details: foliar spray, visual after 2 weeks, 0 no injury, 100 complete kill
Description: as §2

[10] = tested on: pigweed (Amaranthus retroflexus); assay: Postemergence herbicidal activity, pigweed; details: foliar spray, visual after 2 weeks, 0 no injury, 100 complete kill
Description: as §2

[11] = tested on: crabgrass (Digitaria sanguinalis); assay: Preemergence herbicidal activity, crabgrass; details: soil spray, visual after 3 weeks, 0 no injury, 100 complete kill or no germination
Description: as §1

[12] = tested on: lambsquarters (Chenopodium album); assay: Preemergence herbicidal activity, lambsquarters; details: soil spray, visual after 3 weeks, 0 no injury, 100 complete kill or no germination
Description: as §1

[13] = tested on: lambsquarters (Chenopodium album); assay: Postemergence herbicidal activity, lambsquarters; details: foliar spray, visual after 2 weeks, 0 no injury, 100 complete kill
Description: as §2

[14] = tested on: cocklebur (Xanthium strumarium); assay: Postemergence herbicidal activity, cocklebur; details: foliar spray, visual after 2 weeks, 0 no injury, 100 complete kill
Description: as §2

wild oats (Avena fatua) [15] = assay: Preemergence herbicidal activity, wild oats; details: soil spray, visual after 3 weeks, 0 no injury, 100 complete kill or no germination
Description: as §1

[16] = tested on: velvetleaf (Abutilion theophrasti); assay: Preemergence herbicidal activity, velvetleaf; details: soil spray, visual after 3 weeks, 0 no injury, 100 complete kill or no germination
Description: as §1

[17] = tested on: Rox orange sorghum (Sorghum bicolor); assay: Preemergence herbicidal activity, Rox orange sorghum; details: soil spray, visual after 3 weeks, 0 no injury, 100 complete kill or no germination
Description: as §1

wild oats (Avena fatua) [18] = assay: Postemergence herbicidal activity, wild oats; details: foliar spray, visual after 2 weeks, 0 no injury, 100 complete kill
Description: as §2

[19] = tested on: blackgrass (Alopecurus myosuroides); assay: Postemergence herbicidal activity, blackgrass; details: foliar spray, visual after 2 weeks, 0 no injury, 100 complete kill
Description: as §2

[20] = tested on: cocklebur (Xanthium strumarium); assay: Preemergence herbicidal activity, cocklebur; details: soil spray, visual after 3 weeks, 0 no injury, 100 complete kill or no germination
Description: as §1

[21] = tested on: giant foxtail (Setaria faberi); assay: Preemergence herbicidal activity, giant foxtail; details: soil spray, visual after 3 weeks, 0 no injury, 100 complete kill or no germination
Description: as §1

[22] = tested on: morningglory (Ipomoea hederacea); assay: Preemergence herbicidal activity, morningglory; details: soil spray, visual after 3 weeks, 0 no injury, 100 complete kill or no germination
Description: as §1

[23] = tested on: giant foxtail (Setaria faberi); assay: Postemergence herbicidal activity, giant foxtail; details: foliar spray, visual after 2 weeks, 0 no injury, 100 complete kill
Description: as §2

viola (Viola tricolor) = assay: Postemergence herbicidal activity, viola; details: foliar spray, visual after 2 weeks, 0 no injury, 100 complete kill
Description: as §2

## COc1csc(Cl)c1S(=O)(=O)Nc1nc2c(C)cnc(OC)n2n1 [Compound 21]
[1]; 8.8 g/Ha
  AMARE preemergence injury score 0-100: 60%
[2]; 8.8 g/Ha
  ALOMY preemergence injury score 0-100: 70%
[3]; 62.5 ppm
  SORBI postemergence injury score 0-100: 100%
[4]; 8.8 g/Ha
  ECHCG preemergence injury score 0-100: 30%
[5]; 62.5 ppm
  POLCO postemergence injury score 0-100: 100%
[6]; 62.5 ppm
  STEME postemergence injury score 0-100: 100%
[7]; 62.5 ppm
  IPOHE postemergence injury score 0-100: 80%
[8]; 8.8 g/Ha
  EPHHL preemergence injury score 0-100: 60%
[9]; 62.5 ppm
  ABUTH postemergence injury score 0-100: 100%
[10]; 62.5 ppm
  AMARE postemergence injury score 0-100: 100%
[11]; 8.8 g/Ha
  DIGSA preemergence injury score 0-100: 40%
[12]; 8.8 g/Ha
  CHEAL preemergence injury score 0-100: 70%
[13]; 62.5 ppm
  CHEAL postemergence injury score 0-100: 100%
[14]; 62.5 ppm
  XANST postemergence injury score 0-100: 90%
Wild oats (Avena fatua) [15]; 8.8 g/Ha
  AVEFA preemergence injury score 0-100: 70%
[16]; 8.8 g/Ha
  ABUTH preemergence injury score 0-100: 80%
[17]; 8.8 g/Ha
  SORBI preemergence injury score 0-100: 70%
Wild oats (Avena fatua) [18]; 62.5 ppm
  AVEFA postemergence injury score 0-100: 75%
[19]; 62.5 ppm
  ALOMY postemergence injury score 0-100: 30%
[20]; 8.8 g/Ha
  XANST preemergence injury score 0-100: 50%
[21]; 8.8 g/Ha
  SETFA preemergence injury score 0-100: 70%
[22]; 8.8 g/Ha
  IPOHE preemergence injury score 0-100: 40%
[23]; 62.5 ppm
  SETFA postemergence injury score 0-100: 50%
Viola (Viola tricolor); 62.5 ppm
  VIOTR postemergence injury score 0-100: 90%

## COc1cscc1S(=O)(=O)Nc1nc2c(OC)ccc(OC)n2n1 [Compound 16]
[1]; 35 g/Ha
  AMARE preemergence injury score 0-100: 60%
[2]; 35 g/Ha
  ALOMY preemergence injury score 0-100: 100%
[3]; 15.6 ppm
  SORBI postemergence injury score 0-100: 90%
[4]; 35 g/Ha
  ECHCG preemergence injury score 0-100: 0%
[5]; 15.6 ppm
  POLCO postemergence injury score 0-100: 90%
[6]; 15.6 ppm
  STEME postemergence injury score 0-100: 90%
[7]; 15.6 ppm
  IPOHE postemergence injury score 0-100: 60%
[8]; 35 g/Ha
  EPHHL preemergence injury score 0-100: 0%
[9]; 15.6 ppm
  ABUTH postemergence injury score 0-100: 80%
[10]; 15.6 ppm
  AMARE postemergence injury score 0-100: 95%
[11]; 35 g/Ha
  DIGSA preemergence injury score 0-100: 30%
[12]; 35 g/Ha
  CHEAL preemergence injury score 0-100: 80%
[13]; 15.6 ppm
  CHEAL postemergence injury score 0-100: 95%
[14]; 15.6 ppm
  XANST postemergence injury score 0-100: 95%
Wild oats (Avena fatua) [15]; 35 g/Ha
  AVEFA preemergence injury score 0-100: 0%
[16]; 35 g/Ha
  ABUTH preemergence injury score 0-100: 40%
[17]; 35 g/Ha
  SORBI preemergence injury score 0-100: 0%
Wild oats (Avena fatua) [18]; 15.6 ppm
  AVEFA postemergence injury score 0-100: 80%
[19]; 15.6 ppm
  ALOMY postemergence injury score 0-100: 85%
[20]; 35 g/Ha
  XANST preemergence injury score 0-100: 40%
[21]; 35 g/Ha
  SETFA preemergence injury score 0-100: 0%
[22]; 35 g/Ha
  IPOHE preemergence injury score 0-100: 0%
[23]; 15.6 ppm
  SETFA postemergence injury score 0-100: 90%
Viola (Viola tricolor); 15.6 ppm
  VIOTR postemergence injury score 0-100: 70%
